Values belong to the compound of their own block, whether it stands above or below them.
Legend:
[1] = In vitro diffusion of IFN-α into human skin, flow-through diffusion cells, antiviral bioassay of skin homogenate; conditions: Biphasic lipid vesicles + acylated amino acid + IFN-α, 24 hours, n = 4
[2] = guinea pigs, lipid vesicle patch 24 hours, FIG. 1A, vs untreated control animals
[3] = human, in vivo
Description: The human subjects were divided randomly into three groups for treatment with a transdermal patch containing a lipid vesicle compositions at one of the three IFN-α concentrations. […] After treatment with the placebo, skin biopsies and blood samples were collected from each subject. In Phase II of the study, each subject was treated with a transdermal patch containing IFN-α entrapped in biphasic lipid vesicles at one of the three concentrations: 5 MU/g formulation/patch, 15 MU/g formulation/patch or 40 MU/g formulation/patch. After treatment for 48 hours, skin biopsies and blood samples were taken and analyzed. The biopsy samples were analyzed by immunohistochemistry, antiviral assay, ELISA and 2-5A synthetase assays. The blood samples were used to prepare serum for the antiviral and ELISA assays and to extract peripheral blood mononuclear cells for the 2-5A synthetase assay.
To determine IFN-α concentration in skin homogenates, Cytoscreen™ ELISA kit (Medicorp, Montreal, PQ) was used. The sensitivity of the assay is <25 pg/mL and the range of concentration is 0-500 pg/mL. The assay is specific for human IFN-α with no cross-reactivity with human IFNβ, IFNγ or IFNω. The results are expressed as pg IFN-α/mg skin.
Seventeen human volunteers were randomized into three treatment groups. […]

[4] = Antiviral activity in serum of human subjects after transdermal patch; conditions: individual subjects in each treatment group (5, 15, 40 MU), before vs after 48 hours patch, FIGS. 4A-4C
[5] = tested on: Ki67 nuclear protein in proliferating cells; experiment: Anti-proliferation assay on skin sections of human volunteers (Ki67 staining); assay type: in vivo; conditions: for Average % decrease of proliferative cells stained by anti-Ki67 antibody: 48 hours
Text: Skin sections were also stained for Ki67 nuclear protein in proliferating cells using anti-M1B1 monoclonal antibodies (Rose et al., J. Clin. Pathol., 47:1010 (1994)) and visualized.
The number of stained cells were counted before and after treatment sections. The decreased number of stained cells were expressed as a percentage.

[6] = Immunohistochemistry of skin biopsies with anti-IFN-α antibodies; assay type: in vivo, human; conditions: 40 MU group, treated skin site vs untreated skin
Text: The skin biopsy taken from the site of application of the biphasic lipid vesicle-containing transdermal patch of each test subject was processed for immunohistochemistry. A skin sample from a representative individual in the treatment group receiving 40 MU IFN-α was compared visually to a skin section of control, untreated skin after staining both samples with anti-IFN-α antibodies. […] This staining pattern was characteristic in all volunteers in this treatment group.
Sections 5 μm in thickness were cut and after antigen retrieval with 10 mM Na-citrate the sections were incubated with mouse anti-human interferon alpha antibody (1:2,000-1:5,000), which were in turn treated with a biotinylated rabbit anti-mouse secondary antibody and stained by the Avidin Biotin Complex (ABC) method.

2-5A synthetase = 2-5A synthetase enzyme activity in PBMC of treated human subjects; assay type: in vivo; conditions: all three treatment groups compared to their untreated controls (p<0.05)
Description: The experimental protocol is set forth in Example 5C.
Induction of 2-5A synthetase enzyme activity in peripheral blood mononuclear cells (PBMC) was used as an indication for the systemic delivery of IFN-α from biphasic delivery systems.
2-5A synthetase was determined by a ^125I-2-5A radioimmuno assay kit (Eiken Chemical Corp., Tokyo, Japan) using rabbit anti-human 2-5A antibody and goat antirabbit IgG as secondary antibody. Briefly, 2-5A synthetase was extracted from the samples by poly (I) poly (C) agarose for 10 min. After the addition of ATP solution (24 μg/mL) and incubation, 100 μL ^125I-2-5A was added, followed by the primary and secondary antibody. Radioactivity bound was determined by gamma counting. 2-5A synthetase is measured as pmol 2-5A produced/100 mL/h and subsequently expressed as nmole enzyme/mg protein 1 h in skin homogenate. All samples were run in duplicates.

Compound: CCCCCCCCCCCC(=O)NCCCC[C@H](N)C(=O)O [MLL, Lauroyl lysine]
Average Amount of IFN-α in skin [1]: 250 ± 112 U/mg protein

Compound: CCCCCCCC(=O)N[C@H](C(=O)OC)[C@@H](C)O [PDM1, N-capryloyl-L-threonine methyl ester]
Average Amount of IFN-α in skin [1]: 290 ± 172 U/mg protein

Compound: CCCCCCCCCCCCCCCCCCCC(=O)N[C@@H](CO)C(=O)O [PDM3, N-eicosanoyl-L-serine]
serum antiviral activity / transdermal skin penetration (in words) [2]: significant increase | Average Amount of IFN-α in skin [1]: 2022 ± 1046 U/mg protein

Compound: IFN-α
further increase in IFN-α levels in skin homogenates (in words) [3]: No significant further increase | increase in IFN-α levels in post-treatment skin homogenates (ELISA) [3]: 3 fold | serum antiviral activity (in words) [4]: significant increase | Average % decrease of proliferative cells stained by anti-Ki67 antibody ([5]; Dose 5 MU, compared to placebo treated skin): 14% | anti-proliferative ratio ([5]; Dose 5 MU, proliferating cells in placebo treated skin / after treatment): 1.21 | Average % decrease of proliferative cells stained by anti-Ki67 antibody ([5]; Dose 15 MU, compared to placebo treated skin): 10% | anti-proliferative ratio ([5]; Dose 15 MU, proliferating cells in placebo treated skin / after treatment): 1.32 | Average % decrease of proliferative cells stained by anti-Ki67 antibody ([5]; Dose 40 MU, compared to untreated skin): 38% | anti-proliferative ratio ([5]; Dose 40 MU, proliferating cells in untreated skin / after treatment): 2 | Ki67 staining of skin sections, anti-proliferative effect (in words) ([5]; skin treated with IFN-α): decreased staining | IFN-α specific immunostaining of skin section (in words) [6]: IFN-α specific immunostaining throughout the stratum corneum, epidermis and dermis | induction in 2-5A synthetase enzyme activity (in words) (2-5A synthetase): significant induction

More lines, now with the values ahead:

Average Amount of IFN-α in skin [1]: 1707 ± 538 U/mg protein
Compound: CCCCCCCCCCCCCCCCCCCC(=O)N[C@H](C(=O)O)[C@@H](C)O [PDM4, N-eicosanoyl threonine]

Average Amount of IFN-α in skin [1]: 540 ± 239 U/mg protein
Compound: CCCCCCCCCCCCCCCC(=O)N[C@@H](CCCCNC(=O)CCCCCCCCCCC)C(=O)OC [PDM17, Nα-palmitoyl-Nε Lauroyl-L- lysine methyl ester]

Average Amount of IFN-α in skin [1]: 84 ± 52 U/mg protein
Compound: CCCCCCCCCCCC(=O)NCCCC[C@H](NC(=O)CCCCCCCCCCC)C(=O)OC [PDM18, Nα lauroyl-Nε Lauroyl-L- lysine methyl ester]

From patent publication US6656499B1, “Composition for transdermal and dermal administration of interferon-α” (PharmaDerm Laboratories, Ltd., priority 1999, dated 2003)
